The numbers were not newly measured in US5198423A, “Functional polypeptide containing a cell binding domain and a heparin binding domain of fibronectin” (Takara Shuzo Co., Ltd., priority 1989, dated 1993), which cites them from elsewhere.

Each structure is given as a SMILES string.

The data set deals with angiogenesis. The following applies: chick embryo chorions, rabbit corneas, and hamster cheek pouches.
Turning to `C[C@]12C=CC(=O)C=C1CC[C@@H]1[C@@H]2[C@@H](O)C[C@@]2(C)[C@H]1CC[C@]2(O)C(=O)CO` [prednisolone], the “inhibition of angiogenesis, in words” value is given as “found to inhibit angiogenesis”.

With `C[C@@H]1C[C@H]2[C@@H]3CCC4=CC(=O)C=C[C@]4(C)[C@@]3(F)[C@@H](O)C[C@]2(C)[C@@]1(O)C(=O)CO` [dexamethasone], the “inhibition of angiogenesis, in words” value is “found to inhibit angiogenesis”.

On to `C[C@H]1C[C@@H]2[C@H]([C@@H](O)C[C@@]3(C)[C@H]2CC[C@]3(O)C(=O)CO)[C@@]2(C)C=CC(=O)C=C12` [6α-methylprednisolone], for which the “inhibition of angiogenesis, in words” value is listed as “found to inhibit angiogenesis”.
